The subject of experiment [1] is myrosinase. The experiment is described as follows: Conversion of glucoraphanin to sulforaphane in Simulated Intestinal Fluid. Type of experiment: biochemical, broccoli. The following applies: 0.25 to 1.00 mmol/Liter ascorbic acid, 38° C., especially at the earlier stages, FIG. 4. How it is done: Simulated Intestinal Fluid (SIF) powder, a commercially supplied concentrate closely approximating the human intestinal content in terms of composition, pH and ionic strength, was used. The experiment utilized a USP Dissolution Apparatus 2 (paddles), where into six dissolution vessels 500 mL of Simulated Intestinal Fluid was dispensed, along with 150 mg of freeze-dried broccoli sprout powder as a source of myrosinase. […] Aliquots were withdrawn every 15 minutes, and assayed for sulforaphane.

Experiment [2] has as its system broccoli sprout-derived myrosinase. The experiment is described as follows: Hydrolysis of glucoraphanin (broccoli seed extract) by myrosinase as a function of ascorbic acid concentration. Type of experiment: biochemical. The settings on record: 38° C.; for Slope (rate of glucoraphanin consumption): linear regression 0-60 min. On the procedure: About 250 mg of broccoli seed extract containing about 12% (w/w) glucoraphanin were subjected to hydrolysis by a fixed concentration of broccoli sprout-derived myrosinase in the presence of variable concentration of ascorbic acid, ranging from 0 to 600 μmoles/Liter. The reaction mixtures were thermostated at 38° C.; aliquots were withdrawn every 15 minutes for 60 minutes, and concentration of glucoraphanin determined chromatographically. The rate of glucoraphanin consumption was interpreted as the rate its conversion to sulforaphane. Graphical representation of glucoraphanin content reduction as a function of increasing ascorbic acid concentration results in a series of linear plots; the slopes of the linear regression lines reflect the rate of glucoraphanin consumption, in μmoles/minute. It is apparent that in the presence of 600 μmoles/Liter concentration of ascorbic acid, the reaction rate increased 13-fold relative to that which proceeded in the absence of modulatory effects of ascorbic acid.

Experiment [3] deals with myrosinase. Nature of the experiment: Equimolar conversion of glucoraphanin to sulforaphane by myrosinase, with and without ascorbic acid. Type of experiment: biochemical. The following applies: Part 2; broccoli seed extract fixed at 250 mg. How it is done:
A two-part experiment was conducted to further elucidate the role of ascorbic acid in modulating myrosinase activity. […] A control sample contained no ascorbic acid, and the enzymatic conversion proceeded unassisted by a co-factor. PART 1. […] PART 2. While keeping the amount of broccoli seed extract fixed at 250 mg, the concentration of ascorbic acid was varied from 0.4 mmol/Liter to 3.8 mmol/Liter.

Experiment [4] has as its system monocyte chemoattractant protein (MCP-1). The settings on record: 24 hours, RAW cells activated with 1 μg/mL LPS. On the procedure:
The following study was conducted to determine the effect of the combination of sulforaphane and magnesium sulfate (MgSO4) on expression of monocyte chemoattractant protein (MCP-1), which is a mediator of inflammation. MCP-1 is chemokine which attracts monocytes, macrophages, and lymphocytes to sites of inflammation. A reduction in MCP-1 is beneficial for the health of endothelial cells which line the cardiovascular system.
In the study, RAW cells were activated with 1 μg/mL lipopolysaccharide (LPS) for 30 minutes to stimulate the induction of MCP-1 gene expression. Following LPS treatment, the cells were treated with one of the following: (i) DMSO (vehicle control), (ii) 0.5 μM SFN, (iii) 2.5 mM MgSO4, or (iv) the combination of 0.5 μM SFN and 2.5 mM MgSO4. After treatment for 24 hours, the MCP-1 levels were assessed via quantitative RT-PCR.

The test system of the next experiment is heme oxygenase-1 (HO-1). The settings on record: oral administration; mammary epithelium; Sprague-Dawley rats; cited from earlier work.
For experiment [5], the system named is NAD(P)H:quinine oxidoreductase (NQO1). The settings on record: oral administration; mammary epithelium; Sprague-Dawley rats; cited from earlier work.
For a further experiment, the system named is mammary tumors. The following applies: Sprague-Dawley rats; cited from earlier work.

Read-outs that look alike come from different tables or passages of the source.

Take `O=C1O[C@H]([C@@H](O)CO)C(O)=C1O` [Ascorbic Acid, ascorbic acid]: the “relation of sulforaphane yield to ascorbic acid concentration” value in the experiment on myrosinase [1] is “direct correlation between larger yield of sulforaphane and higher concentrations of ascorbic acid”. Further, in experiment [2] (600 μmoles/Liter ascorbic acid, relative to absence of ascorbic acid), the “increase of reaction rate (glucoraphanin consumption)” value turned out to be 13 fold. Also, the “Slope (rate of glucoraphanin consumption)” value is -0.286 µmol/min in experiment [2] (ascorbic acid 50 μM); -0.5622 µmol/min in experiment [2] (ascorbic acid 125 μM); -0.4714 µmol/min in experiment [2] (ascorbic acid 250 μM Filtered); -0.7901 µmol/min in experiment [2] (ascorbic acid 250 μM); -1.007 µmol/min in experiment [2] (ascorbic acid 400 μM); -1.2 µmol/min in experiment [2] (ascorbic acid 600 μM). For the same compound, the “glucoraphanin (GR) content” value in experiment [2] (ascorbic acid 50 μM, time 0 min) is 93.36 µmol; in experiment [2] (ascorbic acid 50 μM, time 15 min), 89.20 µmol; in experiment [2] (ascorbic acid 50 μM, time 30 min) it was 84.24 µmol; in experiment [2] (ascorbic acid 50 μM, time 45 min), 80.30 µmol; in experiment [2] (ascorbic acid 50 μM, time 60 min) it was 76.36 µmol; in experiment [2] (ascorbic acid 125 μM, time 0 min), 93.36 µmol. Moreover, the “glucoraphanin (GR) content” value in experiment [2] (ascorbic acid 125 μM, time 15 min) was determined as 84.52 µmol; in experiment [2] (ascorbic acid 125 μM, time 30 min), 75.92 µmol; in experiment [2] (ascorbic acid 125 μM, time 45 min) it was 68.09 µmol; in experiment [2] (ascorbic acid 125 μM, time 60 min) it was 59.41 µmol; in experiment [2] (ascorbic acid 250 μM Filtered, time 0 min), 93.36 µmol; in experiment [2] (ascorbic acid 250 μM Filtered, time 15 min) it was 86.31 µmol. Besides, the “glucoraphanin (GR) content” value worked out at 79.44 µmol in experiment [2] (ascorbic acid 250 μM Filtered, time 30 min); 71.94 µmol in experiment [2] (ascorbic acid 250 μM Filtered, time 45 min); 65.18 µmol in experiment [2] (ascorbic acid 250 μM Filtered, time 60 min); 93.36 µmol in experiment [2] (ascorbic acid 250 μM, time 0 min); 80.95 µmol in experiment [2] (ascorbic acid 250 μM, time 15 min); 69.06 µmol in experiment [2] (ascorbic acid 250 μM, time 30 min). Also, the “glucoraphanin (GR) content” value in experiment [2] (ascorbic acid 250 μM, time 45 min) stood at 57.63 µmol; in experiment [2] (ascorbic acid 250 μM, time 60 min), 45.76 µmol; in experiment [2] (ascorbic acid 400 μM, time 0 min) it was 93.36 µmol; in experiment [2] (ascorbic acid 400 μM, time 15 min), 78.32 µmol; in experiment [2] (ascorbic acid 400 μM, time 30 min), 62.78 µmol; in experiment [2] (ascorbic acid 400 μM, time 45 min) it was 47.67 µmol. Also, the “glucoraphanin (GR) content” value in experiment [2] (ascorbic acid 400 μM, time 60 min) was found to be 33.15 µmol; in experiment [2] (ascorbic acid 600 μM, time 0 min), 93.36 µmol; in experiment [2] (ascorbic acid 600 μM, time 15 min), 75.02 µmol; in experiment [2] (ascorbic acid 600 μM, time 30 min), 55.66 µmol; in experiment [2] (ascorbic acid 600 μM, time 45 min), 37.50 µmol; in experiment [2] (ascorbic acid 600 μM, time 60 min) it was 22.09 µmol. Besides, the “ascorbic acid concentration up to which myrosinase-promoted conversion increases apparently linearly, then levels off” value in the experiment with myrosinase [3] was “about 2 mmol/L”.

Consider `O=S(=O)([O-])[O-].[Mg+2]` [magnesium sulfate], for which the “decrease in MCP-1 levels” value in experiment [4] (2.5 mM MgSO4) is “approximately 16%”.

With `C[S+]([O-])CCCCN=C=S` (centres unmarked) [sulforaphane, 1-isothiocyanato-4-methylsulfinylbutane], the “elevated immunostaining of HO-1” value in the experiment on heme oxygenase-1 (HO-1) is 4 fold. For the same compound, the “increase in NQO1 enzymatic activity” value in experiment [5] is on record as 3 fold. The “blocking the formation of mammary tumors” value in the experiment with mammary tumors is given as “effective in blocking the formation of mammary tumors”. In addition, the “decrease in MCP-1 levels” value in experiment [4] (0.5 μM SFN) was “approximately 29%”.

Source of the values: patent US20150118304A1, “COMPOSITIONS COMPRISING SULFORAPHANE OR A SULFORAPHANE PRECURSOR AND MAGNESIUM” (Nutramax Laboratories, Inc., priority 2012, published 2015).
